Source: patent US20260183303A1, “PDK1 REGULATORY COMPOUND AND COMPOSITION CONTAINING THE SAME” (PROVIBIO CO., LTD., priority 2024, published 2026)

System: T cells isolated from mouse spleens
Experiment: T cell proliferation inhibition (CFSE flow cytometry, anti-CD3/anti-CD28 activation)
Format: cell-based, C57BL/6 mice
Details: mouse spleen T cells, CD3/CD28 activated, cultured three days
Description: To verify the T cell proliferation inhibitory effect of the compounds according to the present invention, the following experiment was performed based on flow cytometry analysis using carboxyfluorescein diacetate succinimidyl ester (CFSE), a fluorescent dye that binds to intracellular molecules via covalent bonds.
Spleens were extracted from 7-week-old C57BL/6 mice, ground, and then separated into single cells using a strainer ([…], SPL). Red blood cells were removed using ACK (Ammonium-Chloride-Potassium) lysis buffer to isolate white blood cells.
Finally, using a MACS Magnetic Stand and LS column, T cells were isolated from the spleen.
The T cells isolated from the spleen were resuspended in 1 mL of free medium (RPMI-1640+200 U/mL penicillin+200 μg/mL streptomycin), and 0.3 μL of CFSE (10 mM) was added. The mixture was incubated at 37° C. for 5 minutes.
Free medium (10 mL) was added to stop the reaction, and the cells were centrifuged to obtain the cell pellet.
RPMI 1640 medium containing 10% FBS, 100 U/mL penicillin, 100 μg/mL streptomycin, and resuspended the cells. The cells were then seeded into a 96-well plate at a density of 2×10^5 cells per well and activated with CD3 and CD28 antibodies ([…]) to activate T cells.
The compound diluted in DMSO was added at concentrations of 10 nM, 100 nM, 1 μM, […], 30 μM, and 50 µM, with three wells per concentration, and cultured at 37° C. and 5% CO2 for three days. The cells were then analyzed using a FACS Canto instrument.
The proliferation inhibition rate (%) was calculated using the following formula: […]

SMILES | Proliferation inhibition rate (%) (1 μM) | Proliferation inhibition rate (%) (10 μM) | Proliferation inhibition rate (%) (30 μM) | Proliferation inhibition rate (%) (50 μM) | Proliferation inhibition rate (%) (10 nM) | Proliferation inhibition rate (%) (100 nM) | other results
Nc1ncccc1C(=O)NCCCCCCCCCCCCN1CCC2CCCCC2C1 (stereo not shown) [Compound 16, 2-Amino-N-(12-(Octahydroisoquinolin-2(1H)-Yl)Dodecyl) Nicotinamide] | 100.00 | 100.00 | 100.00 | 100.00 |  |  | 
Nc1ncccc1C(=O)NCCCCCCCCCCCCN1CCc2ccccc2C1 [Compound 17, 2-Amino-N-(12-(3,4-dihydroisoquinolin-2(1H)-yl)dodecyl) nicotinamide] |  |  |  |  |  |  | Proliferation inhibition rate (%) (10 nM, listed as PBK-2024-004, 0.01 µM): 0.00%; Proliferation inhibition rate (%) (100 nM, listed as PBK-2024-004, 0.1 µM): −14.00%; Proliferation inhibition rate (%) (1 μM, listed as PBK-2024-004, 1 µM): 100.00%; Proliferation inhibition rate (%) (10 μM, listed as PBK-2024-004, 10 µM): 100.00%
CC1(C)CCN(CCCCCCCCCCCCNC(=O)c2cccnc2N)C1 [Compound 22, 2-Amino-N-(12-(3,3-dimethylpyrrolidin-1-yl)dodecyl) nicotinamide] | 100.00 | 100.00 | 100.00 | 100.00 | −0.80 | 100.00 | 
COC1CCN(CCCCCCCCCCCCNC(=O)c2cccnc2N)C1 (stereo not shown) [Compound 32, 2-Amino-N-(12-(3-methoxypyrrolidin-1-yl)dodecyl) nicotinamide] |  |  |  | 100.00 |  |  | Proliferation inhibition rate (%) (10 nM, listed as PBK-2024-024, 0.01 µM): 0.29%
CN(CCCCCCCCCCCCNC(=O)c1cccnc1N)C1CCCCC1 [Compound 34, 2-Amino-N-(12-(cyclohexyl(methyl)amino)dodecyl) nicotinamide] | 100.00 | 100.00 | 100.00 | 100.00 |  | 100.00 | 
CC1CN(CCCCCCCCCCCCNC(=O)c2cccnc2N)C(C)CN1.Cl (stereo not shown) [Compound 36, 2-Amino-N-(12-(2,5-dimethylpiperazin-1-yl)dodecyl) nicotinamide hydrochloride] | 100.00 | 100.00 | 100.00 | 100.00 |  | 100.00 | 
C[C@H]1CNCCN1CCCCCCCCCCCCNC(=O)c1cccnc1N.Cl [Compound 37, (S)-2-Amino-N-(12-(2-methylpiperazin-1-yl)dodecyl) nicotinamide hydrochloride] | 100.00 | 100.00 | 100.00 | 100.00 |  |  | 
CC1CCCN(CCCCCCCCCCCCNC(=O)c2cccnc2N)CC1 (stereo not shown) [Compound 39, 2-Amino-N-(12-(4-methylazepan-1-yl)dodecyl) nicotinamide] | 100.00 | 100.00 | 100.00 | 100.00 |  | 100.00 | 
CC1CN(C)C(CCCCCCCCCCCCNc2ccc3cncnc3n2)N1 (stereo not shown) [Compound 43] | 100.00 | 100.00 | 100.00 | 100.00 |  | 100.00 | 
Nc1ncccc1C(=O)NCCCCCCCCCCCCN1CCC(O)CC1 [Compound 48, 2-Amino-N-(12-(4-hydroxypiperidin-1-yl)dodecyl) nicotinamide] | 100.00 | 100.00 | 100.00 | 100.00 |  | 100.00 | 
CN(CCCCCCCCCCCCNC(=O)c1cccnc1N)C(C)(C)C [Compound 53, 2-Amino-N-(12-(tert-butyl(methyl)amino)dodecyl) nicotinamide] | 100.00 | 100.00 | 100.00 | 100.00 |  | 100.00 | 
Nc1ncccc1C(=O)NCCCCCCCCCCCCN1CCN(CCO)CC1 [Compound 54, 2-Amino-N-(12-(4-(2-hydroxyethyl)piperazin-1-yl)dodecyl) nicotinamide] | 100.00 | 100.00 | 100.00 | 100.00 |  | 100.00 | 
COC1CCN(CCCCCCCCCCCCNC(=O)c2cccnc2N)CC1 [Compound 94, 2-amino-N-(12-(4-methoxypiperidin-1-yl)dodecyl) nicotinamide] | 100.00 | 100.00 | 100.00 | 100.00 |  | 100.00 | 
Nc1ncccc1C(=O)NCCCCCCCCCCCCN1CCN(C=O)CC1 [Compound 97, 2-amino-N-(12-(4-formylpiperazin-1-yl)dodecyl) nicotinamide] | 100.00 | 100.00 | 100.00 | 100.00 |  |  | 
Nc1ncccc1C(=O)NCCCCCCCCCCCCN1CCN(C(=O)C2CC2)CC1 [Compound 99, 2-amino-N-(12-(4-(cyclopropanecarbonyl)piperazin-1-yl)dodecyl) nicotinamide] | 100.00 | 100.00 | 100.00 | 100.00 | −12.13 | 100.00 | 
CC(C)(C)OC(=O)NC1CCN(CCCCCCCCCCCCNC(=O)c2cccnc2N)CC1 [Compound 101, tert-Butyl (1-(12-(2-aminonicotinamido)dodecyl)piperidin-4-yl) carbamate] | 100.00 | 100.00 | 100.00 | 100.00 | −0.15 | 100.00 | 
CC(C)N1CCN(CCCCCCCCCCCCNC(=O)c2cccnc2N)CC1 [Compound 104, 2-Amino-N-(12-(4-isopropylpiperazin-1-yl)dodecyl) nicotinamide] | 100.00 | 100.00 | 100.00 | 100.00 | 100.00 | 100.00 | 
Nc1ncccc1C(=O)NCCCCCCCCCCCCn1ccc2c(Cl)c(I)cnc21 [Compound 109, 2-Amino-N-(12-(4-chloro-5-iodo-1H-pyrrolo[2,3-b]pyridin-1-yl)dodecyl) nicotinamide] | 20.91 | 100.00 | 100.00 | 100.00 | 0.15 | 8.48 | 
CC(C)(C)OC(=O)N1CCN(CCCCCCCCCCCCNC(=O)c2cccnc2N)CC1 [Compound 111, tert-butyl-4-(12-(2-aminonicotinamido)dodecyl) piperazine-1-carboxylate] | 100.00 | 100.00 | 100.00 | 100.00 | 0.00 | 100.00 | 
CC(C)(C)OC(=O)N[C@@H]1CCCN(CCCCCCCCCCCCNC(=O)c2cccnc2N)C1 [Compound 117, tert-butyl-(R)-(1-(12-(2-aminonicotinamido)dodecyl)piperidin-3-yl)carbamate] |  |  |  |  |  |  | inhibition at 0.01 µM (Mus musculus, T-cell, 72 h, 10 nM, read-out: Proliferation inhibition rate (%)): -15.8%; inhibition at 0.1 µM (Mus musculus, T-cell, 72 h, 100 nM, read-out: Proliferation inhibition rate (%)): 100%; inhibition at 1 µM (Mus musculus, T-cell, 72 h, 1 μM, read-out: Proliferation inhibition rate (%)): 100%; inhibition at 10 µM (Mus musculus, T-cell, 72 h, 10 μM, read-out: Proliferation inhibition rate (%)): 100%; inhibition at 30 µM (Mus musculus, T-cell, 72 h, 30 μM, read-out: Proliferation inhibition rate (%)): 100%; inhibition at 50 µM (Mus musculus, T-cell, 72 h, 50 μM, read-out: Proliferation inhibition rate (%)): 100%
